Assay results published in patent US10041047B2, “Compositions and methods for epithelial stem cell expansion and culture” (The Brigham and Women's Hospital, Inc., priority 2013, dated 2018).

Experiments:
[1] = system: single Lgr5-GFP cells; test: Culture of FACS-sorted single Lgr5-GFP cells: colony formation, proliferation, GFP expression; format: cell-based; conditions: for GFP expression / cell proliferation: single GFP-high cells, 7 day culture with ENR
Description: Crypts and single Lgr5-GFP cells were isolated as previously described (Sato et al., 2009). Briefly, the proximal half of the small intestine was harvested, opened longitudinally, and washed with cold PBS to remove luminal content. The tissue was then cut into 2-4 mm pieces with scissors and further washed 5-10 times with cold PBS by pipetting up and down using a 10-ml pipette. Tissue fragments were incubated with 2 mM EDTA in PBS for 30 min on ice. After removal of EDTA, tissue fragments were washed with PBS to release crypts. Supernatant fractions enriched in crypts were collected, passed through a 70 μm cell strainer and centrifuged at 300 g for 5 minutes. The cell pellet was re-suspended with cell culture media without growth factors and centrifuged at 150 g to remove single cells. Crypts were then cultured or used for single cell isolation. To obtain single cells, crypts were incubated in culture medium for 45 minutes at 37° C. and triturated with a glass pipette. Dissociated cells were passed through 20 μm cell strainer, negative stained with propidium iodide and single viable GFP-high cells were sorted by flow cytometry (FACS Aria, BD) as previously described (Sato et al., 2009). […] Isolated crypts or single cells were cultured as previously described (Sato et al., 2009) with minimal modification. Briefly, crypts or single cells were entrapped in Matrigel and plated at the center of wells in a 24-well plate. After polymerization of Matrigel (growth factor reduced; BD Bioscience), 500 μl of culture medium (Advanced DMEM/F12 (Life Technologies)) was added containing growth factors including EGF (50 ng/ml, Life Technologies), Noggin (100 ng/ml, Peprotech) and R-spondin 1 (500 ng/ml, R&D) and small molecules including CHIR99021 (3 μM, Stemgent) and Valproic Acid (1 mM, Sigma-Aldrich). For comparison of different culture conditions, small molecules or growth factors were added to freshly isolated crypts immediately after plating in Matrigel to test the ability to minimize potential differentiation of the ISC within the crypts and thus sustain crypt cultures. Cell culture media was changed every other day. For single cell culture, cells were embedded in Matrigel containing Jagged-1 peptide (1 μM; AnaSpec) and Y-27632 (10 μM; Tocris) was added for the first 2 days. Cells were passaged either as cell colonies as previously described (Sato et al., 2009) or as single cells. For single cell passage, cell culture medium was removed and Accutase (Life Technologies) was added. After incubation at 37° C. for 10-20 minutes, cell colonies were dissociated into single cells by pipetting. Cells were then washed, embedded in fresh Matrigel and plated into 24-well plates. Cells cultured in the CV condition were passaged every 6 days at a 1:20 split ratio.
The Rho kinase inhibitor Y-27632, which inhibits anoikis of single stem cells (Watanabe et al., 2007), was added for the first two days as previously described (Sato et al., 2009).

[2] = system: Lgr5+ stem cells; test: Quantitative real-time PCR of mature intestinal epithelial cell markers and Lgr5, 6 day culture (FIG. 6D); format: cell-based, mouse
Description: FIGS. 6A-6D depict maintenance of Lgr5+ stem cell self-renewal by the combination of CHIR and VPA. Confocal images of Lysozyme (FIG. 6A), Ki67 (FIG. 6B) and EdU (FIG. 6C) staining of organoids cultured under the ENR condition (Upper panels) and colonies cultured in the ENR-CV condition (Lower panels) are shown. For EdU staining, cells were cultured with the thymidine analogue EdU (red) for 1 hour. In FIGS. 6B and 6C, only crypt domains contain Ki67 positive cells or incorporate EdU in the ENR condition (Upper panels) while Ki67 or EdU is present throughout the cell aggregates in the CV condition (Lower panels). FIG. 6D depicts quantitative real-time PCR analysis of relative mRNA expression of markers for mature intestinal epithelial cells cultured for 6 days under conditions as indicated (Intestinal Alkaline phosphatase [Alpi] for enterocytes, Mucin 2 [Muc2] for goblet cells, Chromogranin A [ChgA] for enteroendocrine cells, Lysozyme [Lyz] for Paneth cells, and Lgr5 for intestinal stem cells). ENR-CV(D40) indicates cells that were cultured in the CV condition for 40 days. Scale bars: 50 μm. In FIG. 6D, the series are, from left to right, Alpi, Muc2, ChgA, Lyz, and Lgr5.
As previously reported, cells in the ENR condition grew into organoids with crypt-villus structure containing all intestinal epithelial cell types, confirmed by staining of alkaline phosphatase (Alp) positive enterocytes, Mucin 2 (Muc2) positive goblet cells, Chromogranin A (ChgA) positive enteroendocrine cells, Lysozyme (Lyz) positive Paneth cells and Lgr5-GFP^+ stem cells. Lgr5^+ stem cells only reside at the tips of crypt (FIGS. 6A and 7A). […] In the CV condition, however, GFP^+ stem cells were present throughout the entire colony with minimal presence of Paneth cells (FIG. 6A) and without the presence of other cells types. Compared to ENR culture, Ki67 or EdU positive proliferating cells in the CV condition existed throughout the cell colony (FIGS. 6B and 6C). […] This expression pattern was maintained over multiple passages, and the Lgr5 expression level was maintained (FIG. 6D). […]

| SMILES | increase of colony-forming efficiency ([1]; CHIR added to ENR, single Lgr5-GFP+ cells) | GFP expression [1] | cell proliferation [1] | Paneth cell differentiation [2] | enterocyte differentiation [2] | colony-forming efficiency (in words) ([1]; single Lgr5-GFP+ cells, agent(s) added to ENR) | secretory differentiation [2] |
| --- | --- | --- | --- | --- | --- | --- | --- |
| Cc1cnc(-c2cnc(NCCNc3ccc(C#N)cn3)nc2-c2ccc(Cl)cc2Cl)[nH]1 [CHIR99021, 6-[[2-[[4-(2,4-Dichlorophenyl)-5-(5-methyl-1H-imidazol-2-yl)-2-pyrimidinyl]amino]ethyl]amino]-3-pyridinecarbonitrile] | 20-50 fold | only moderately increased | significantly increased cell proliferation | increased | reduces |  |  |
| CCCC(CCC)C(=O)O [Valproic Acid] |  | promoted GFP expression | minimal pro-proliferative effect |  |  | only weakly increased | decreased |
